Molecules are shown by their SMILES.

3 compounds from ChEMBL document CHEMBL1140170, “The importance of micelle-bound states for the bioactivities of bifunctional peptide derivatives for delta/mu opioid receptor agonists and neurokinin 1 receptor antagonists” (J Med Chem, 2008) can be followed below.

Assay [1] deals with Mu-type opioid receptor (Rattus norvegicus) (UniProt P33535).
Assay [2] deals with Substance-P receptor (Cavia porcellus) (UniProt P30547). The conditions noted are these: Hartley, Ileum.
Sequence of Substance-P receptor (Cavia porcellus) (P30547 whole entry): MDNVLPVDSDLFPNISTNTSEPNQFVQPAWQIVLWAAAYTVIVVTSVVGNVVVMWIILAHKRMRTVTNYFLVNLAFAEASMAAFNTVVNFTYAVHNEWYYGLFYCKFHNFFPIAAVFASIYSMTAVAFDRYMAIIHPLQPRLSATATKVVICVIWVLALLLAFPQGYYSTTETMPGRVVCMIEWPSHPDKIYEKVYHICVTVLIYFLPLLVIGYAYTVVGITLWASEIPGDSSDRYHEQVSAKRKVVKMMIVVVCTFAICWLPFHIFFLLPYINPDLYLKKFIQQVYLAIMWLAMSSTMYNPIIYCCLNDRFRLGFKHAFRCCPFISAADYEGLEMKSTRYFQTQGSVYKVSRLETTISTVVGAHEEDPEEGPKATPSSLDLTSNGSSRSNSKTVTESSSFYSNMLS

Sequence of Mu-type opioid receptor (Rattus norvegicus) (P33535 whole entry): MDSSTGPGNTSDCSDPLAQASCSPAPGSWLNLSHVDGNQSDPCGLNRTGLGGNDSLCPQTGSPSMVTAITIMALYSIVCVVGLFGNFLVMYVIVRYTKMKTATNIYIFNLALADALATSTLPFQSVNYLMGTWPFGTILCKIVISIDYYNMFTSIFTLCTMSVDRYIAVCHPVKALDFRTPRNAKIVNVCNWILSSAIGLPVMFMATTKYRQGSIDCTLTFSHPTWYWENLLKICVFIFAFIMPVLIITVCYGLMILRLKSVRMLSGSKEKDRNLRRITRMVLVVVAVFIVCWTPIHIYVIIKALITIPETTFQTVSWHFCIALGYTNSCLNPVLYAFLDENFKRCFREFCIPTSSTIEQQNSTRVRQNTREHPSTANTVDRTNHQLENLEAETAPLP

For `CSCC[C@H](NC(=O)[C@H](Cc1ccccc1)NC(=O)CNC(=O)[C@@H](C)NC(=O)[C@@H](N)Cc1ccc(O)cc1)C(=O)N1CCC[C@H]1C(=O)N[C@@H](CC(C)C)C(=O)N[C@@H](Cc1c[nH]c2ccccc12)C(=O)OCc1cc(C(F)(F)F)cc(C(F)(F)F)c1`, the pEC50 in assay [1] was 7.5 nM.

Compound `CSCC[C@H](NC(=O)[C@H](Cc1ccccc1)NC(=O)CNC(=O)[C@@H](C)NC(=O)[C@@H](N)Cc1ccc(O)cc1)C(=O)N1CCC[C@H]1C(=O)N[C@@H](CC(C)C)C(=O)N[C@@H](Cc1c[nH]c2ccccc12)C(=O)NCc1ccccc1` came in with a pEC50 in assay [1] of 7.7 nM. Further, the Ke in assay [2] was 9.9 nM.

On to `CSCC[C@H](NC(=O)[C@H](Cc1ccccc1)NC(=O)CNC(=O)[C@@H](C)NC(=O)[C@@H](N)Cc1ccc(O)cc1)C(=O)N1CCC[C@H]1C(=O)N[C@@H](CC(C)C)C(=O)N[C@@H](Cc1c[nH]c2ccccc12)C(=O)NCc1cc(C(F)(F)F)cc(C(F)(F)F)c1`, for which the pEC50 in assay [1] was determined as 8.2 nM. Besides, in assay [2], the Ke turned out to be 10 nM.
